The values that follow come from patent US20250002854A1, “METHODS OF GENERATING POPULATIONS OF TUMOUR-INFILTRATING T CELLS” (LYTIX BIOPHARMA AS, priority 2016, published 2025).

Square brackets hold non-standard residues; d marks the D form. Ends that are not written are not given here. Dip = N[C@H](C(=O)O)C(c1ccccc1)c1ccccc1

In this test the test system is A375 cells. Nature of the test: Confocal microscopy, internalization of fluorescence-labeled peptide. It counts as cell-based, human. As to the method:
The A375 cell line A375 (ECACC, 88113005) is a human malignant melanoma derived from patient material, and was purchased from Public Health England (PHE Culture Collections, Porton Down, Salisbury, UK). Cells were maintained as monolayer cultures in high glucose […] DMEM supplemented with 10% FBS and 1% L-glutamine, but not as antibiotics (complete media). The cell line was grown in a humidified 5% CO2 atmosphere at 37° C., and was regularly tested for the presence of mycoplasma with MycoAlert (Lonza).
Fixed cells, fluorescence-labeled peptide—Subconfluential A375 cells were seeded at 8,000 cells/well as above, and transfected on the second day using the Lipofectamine LTX with Plus transfection reagents (Invitrogen) following the manufacturer's protocol. The mitochondria were labeled using the pDsRed2-Mito, and the nucleus was labeled using the GFP-Histon2B plasmid (Imaging Platform, University of Tromsø). A day after transfection, cells were washed twice with serum-free RPMI, and treated at different concentration and incubation periods with LTX-315 Pacific Blue or LTX-328 Pacific Blue. […] Control cells were treated with unlabeled LTX-315 and also with serum-free RPMI only. After incubation, cells were fixed with 4% paraformaldehyde in PBS, and the wells were covered with Prolong Gold antifade (Invitrogen). Cells were further analyzed by use of a Leica TCS SP5 confocal microscope, with a […] objective. Pacific Blue, GFP and Ds Red were excited using UV, with 488 and 561 lasers, and fluorescence channels were sequentially detected using the following band passes: UV: 420-480 nm (with attenuation), 488: 501-550 nm and 561: 576-676 nm.

“KAQ[Dip]QKQAW-NH2 [LTX-328, reference compound]”: the internalization of peptide result (3 μM, 60 min) was “not internalized”. In addition, the “internalization of Pacific Blue-labelled peptide” value (A375 cells, 3 μM and 1.5 μM) is on record as “did not demonstrate any internalization”.
